Data set [1] addresses T1, RbAp48 (Homo sapiens, UniProt Q09028). The experiment in a line: Competitive fluorescence polarization (FP) assay using complex of peptide 1 and RbAp48. In kind it is binding. The conditions noted are these: for IC50: Table 1, competitive FP, tracer peptide 1 1 nM, RbAp48 15 nM, 20 mM Tris-HCl, 150 mM NaCl, 0.01% Tween-20, pH 7.5, 30 min room temperature, lower limit set by 15 nM protein, read-out: IC50. More on the design: Full length RbAp48 was cloned; His tag followed by 3C cleavage site (N, cleaved yes); made in house; host or cells: Sf9 insect cells. In a few lines: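 Sf9-expressed full-length RbAp48 (tag cleaved), 15 nM, displaced from 1 nM fluorescent peptide tracer in 20 mM Tris-HCl pH 7.5, 150 mM NaCl, 0.01% Tween-20. Read by FP (ex 485/em 535 nm) after 30 min at room temperature.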

For data set [2], the target named is T1, RbAp48. The experiment in a line: Isothermal titration calorimetry (direct and competitive). In kind it is binding. More on the design: Full length RbAp48 was cloned; His tag followed by 3C cleavage site (N, cleaved yes); made in house; host or cells: Sf9 insect cells. On the procedure:
The weak ligand interferes with binding of the strong ligand allowing the use of higher concentrations and therefore stronger signal. The actual affinity and thermodynamic parameters can then be calculated from the measured values.[ ^20 , ^21 ] The long linear peptide 2, monocyclic peptide 8, and bicyclic peptide 33 were analysed using this method and the results are reported in Table 2 (See Figure 4 A and Supplemental Figure 13–16). […] An effect which could not clearly be observed by the FP assay as it's lower limits were reached.
Protein expression and purification
RbAp48 was expressed and purified by the Dortmund Protein Facility. Full length RbAp48 was cloned into a pOPIN vector ligating it to an N-terminal His tag followed by a 3C cleavage site. The protein was expressed from Sf9 cells for 48 h. Cells were harvested and lysed and the protein was purified by loading onto a HisTrap FF crude 5 ml column followed by on-column cleavage using Precission protease. The cleaved protein was then further purified using a HiLoad 26/60 Superdex 200 column.
(§1) Fluorescence polarization assay […]
Isothermal Titration Calorimetry
Isothermal titration calorimetry measurements w ere performed using a Microcal ITC-200 device. The buffer for all measurements consisted of 20 mM Tris, 150 mM NaCl, pH 7.5 and all measurements were performed at 25°C in duplicate except for 8. RbAp48 was dialyzed overnight using a 10 kDa MWCO Slide-A-lizer dialysis membrane and peptide samples were dissolved in the dialysis buffer. Direct measurements of 40 were perfomed by titrating the peptide ( 800 µM) into the cell containing RbAp48 (40 µM) using 2 µl injection after an initial injection of 0.5 µl. […]
by competitive ITC where the protein is premixed with a weak ligand ( 40).[1] Competitive measurements were performed by titrating 2, 8 or 33 (300 µM) into the cell containing RbAp48 (30 µM) and 40 (416 µM). Other conditions were the same as for the direct measurement described above.
Ki was calculated according using the following formula: […]

The nature of data set [3]: Peptide stability in MDA-MB-231 whole cell lysate. In kind it is in vitro ADME. The conditions noted are these: human, 37°C, HPLC, duplicate; for half-life at 600 µM: MDA-MB-231 whole cell lysate (freeze-thaw), 5 mg/ml protein in PBS, peptide 600 µM, read-out: t 1/2 (half-life); for remaining at 5 min, 600 µM: T 5 min; for remaining at 5 min, 600 µM / remaining at 0.25 h, 600 µM / remaining at 1 h, 600 µM: MDA-MB-231 whole cell lysate 5 mg/ml protein, read-out: % left; for remaining at 0.25 h, 600 µM: T 15 min; for remaining at 1 h, 600 µM: T 60 min. As to the method:
To investigate whether the cyclization strategy influences the stability of the peptides we incubated 3, 8 and 33 in MDA‐MB‐231 cell lysate. […]
as §1
Isothermal Titration Calorimetry […]
Peptide stability was tested in whole cell lysate prepared from MDA-MB-231 cells using the freeze-thaw method. Peptides were dissolved in lysate (normalized to 5mg/ml protein using PBS) at 600 µM and incubated at 37°C. Samples were taken at different time points and mixed with an equal amount of MeOH containing 0.05 mg/ml ethylparaben as an i nternal standard. The samples were mixed and kept on ice for 15 minutes before centrifugation at 14000 rpm at 4 °C for 10 min. The supernatant was carefully removed and analyzed by HPLC. Peptide peaks were integrated and surface areas compared […]
Measurements were performed in duplicate.

Data set [4] relates to U2OS cells. Put plainly: Morphological cell painting assay. In kind it is cell-based. The conditions noted are these: Supplemental table 6; cell painting profile similarity to compound 49, U2OS cells. From the text: Encouraged by the promising results from the pulldown experiment, and in order to get insight into bioactivity and possible mode of action, we analyzed peptide 33 in a morphological cell painting assay. The cell painting assay is a target agnostic assay which determines a cells morphological profile after treatment with a compound of interest and compares it to the profiles of a set of reference compounds. ^[22] By identifying reference compounds with a similar profile a hypothesis of the compounds mode of action can be generated based on their annotated targets. ^[23] U2OS cells were treated with our compound and 579 parameters were analyzed. […] We therefore synthesized a variant modified with an N‐terminal TAT sequence to enhance its permeability (compound 49, see Table 1 and Supplemental Figure 4). ^[24] […] Applying compound 49 to the cell painting assay led to an induction of 5.9 % and the corresponding profile was compared to the set of 3000 reference compounds. […] To validate this hypothesis, we exposed U2OS cells to compound 49 and evaluated the levels of p53 by Western blot. […] The exact mechanism by which the compounds elevate levels of p53 requires further investigation. However, it has previously been shown that the NuRD complex, of which RbAp48 is a core component, is able to deacetylate p53 and thereby modulate its stability. ^[26] The effect is mediated by the MTA family of proteins from which the compounds described here are derived. […]
The described assay follows closely the method described by Bray et al. Initially, 5 µl U2OS medium were added to each well of a 384 -well plate (PerkinElmer CellCarrier -384 Ultra). Subsequently, U2OS cell were seeded with a density of 1600 cells per well in 20 µl medium. The plate was incubated for 10 min at the ambient temperatu re, followed by an a dditional 4 h incubation (37 °C, 5 % CO2). Compound treatment was performed with the Echo 520 acoustic dispenser (Labcyte) at final concentrations of 10 µM, 3 µM or 1 µM. Incubation with compound was performed for 20 h (37 °C, 5 % CO2). Subsequently, mitoc hondria were stained with Mito Tracker Deep Red (Thermo Fisher Scientific, Cat. No. M22426). The Mito Tracker Deep Red stock solution (1 mM) was diluted to a final concentration of 100 nM in prewarmed medium. The medium was removed fr om the plate leaving 1 0 µl residual volume and 25 µl of the Mito Tracker solution were added to each well. 22 The plate was incubated for 30 min in darkness (37 °C, 5 % CO2). To fix the cells 7 µl of 18.5 % formaldehyde in PBS were added, resulting in a fi nal formaldehyde conce ntration of 3.7 %. Subsequently, the plate was incubated for another 20 min in darkness (RT) and washed three times with 70 µl of PBS. (Biotek Washer Elx405). Cells were permeabilized by addition of 25 µl 0.1 % Triton X -100 to each well, followed by 15 min incubation (RT) in darkness. The cells were washed three times with PBS leaving a final volume of 10 µl. To each well 25 µl of a staining solution were added, which contains 1 % BSA, 5 µl/mL Phalloidin (Thermo Fisher Scientific, A123 81), 25 µg/ml Concanav alin A (Thermo Fisher Scientific, Cat. […]
conjugate (Thermo Fisher Scientific, Cat. No. W11262) and […] SYTO 14 solution (Thermo Fisher Scientific, Cat. No. S7576). The plate is incubated for 30 min (RT) in darkness and washed three times with 70 µl PBS. After the final washing step the PBS was not aspirated. The plates were sealed and centrifuged for 1 min at 500 rpm.
The plates were prepare d in triplicates with shifted layouts to reduce plate effects and imaged using a Micro XL High-Content Screening System (Molecular Devices) in 5 channels (DAPI: Ex350 -400/ Em410- […]
The generated images were processed with the CellProfiler package (https://cellprofiler.org/, version 3.0.0) on a computing cluster of the Max Planck Society to extract 1716 cell features (parameters) per microscope site. The data was then further aggregated as medians per well (9 sites -> 1 well), then […]

[5] abbreviates: competitive ITC with weak ligand 40.

Results on ten compounds are retold here after publication PMC7894522, “Structure Based Design of Bicyclic Peptide Inhibitors of RbAp48” (Angewandte Chemie (International Ed. in English), 2020).

Starred links: 1 amine or outer side, 2 acyl side, 3 side chain; linkers in the order of their positions; H or OH if unused. Positions of bridges follow the written chain, without caps; N, C: chain ends. Residues, ends and D or L forms follow the SMILES beside them. TBMB = c1c(C[*:1])cc(C[*:3])cc1C[*:2]; pXylylene = c1cc(C[*:2])ccc1C[*:1]

T1 sequence (Q09028 whole entry): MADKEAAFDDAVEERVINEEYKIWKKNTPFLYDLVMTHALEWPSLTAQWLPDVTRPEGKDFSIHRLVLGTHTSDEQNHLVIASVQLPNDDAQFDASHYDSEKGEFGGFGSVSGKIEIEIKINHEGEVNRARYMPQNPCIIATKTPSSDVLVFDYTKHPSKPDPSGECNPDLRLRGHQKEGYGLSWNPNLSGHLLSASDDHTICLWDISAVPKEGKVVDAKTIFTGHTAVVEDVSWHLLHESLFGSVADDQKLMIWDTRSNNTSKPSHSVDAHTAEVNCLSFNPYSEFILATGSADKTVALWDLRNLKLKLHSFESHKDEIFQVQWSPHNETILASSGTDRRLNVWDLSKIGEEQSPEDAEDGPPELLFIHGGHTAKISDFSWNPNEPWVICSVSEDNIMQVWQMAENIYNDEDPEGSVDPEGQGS

As to `CC(=O)N[C@H]1CSCc2cc3cc(c2)CSC[C@@H](C(=O)N[C@@H](C)C(N)=O)NC(=O)[C@@H]2CCCN2C(=O)[C@H](CCCCN)NC(=O)[C@H](Cc2ccc(O)cc2)NC(=O)[C@@H]2CCCN2C(=O)[C@H](CCCNC(=N)N)NC(=O)[C@H](C)NC(=O)[C@H](C)NC(=O)[C@H](CSC3)NC(=O)[C@H](CCCNC(=N)N)NC(=O)[C@H](CCCCN)NC(=O)[C@H]([C@@H](C)O)NC1=O` [Peptide 40] (Ac-CTKRCAARPYKPCA-NH2; linker 1-5-13 via TBMB), in data set [1], the IC50 was 4320 ± 974 nM. For the same compound, the “FP activity in words” value in data set [1] (competitive FP assay) was “decreased several orders of magnitude”. The affinity in data set [2] (weak binding ligand, direct ITC), expressed as Kd, was 15800 nM.

Regarding `CC[C@H](C)[C@H](NC(=O)[C@@H]1CCCN1C(=O)[C@H](CCCCN)NC(=O)[C@H](Cc1ccc(O)cc1)NC(=O)[C@@H]1CCCN1C(=O)[C@H](CCCNC(=N)N)NC(=O)[C@H](CCCNC(=N)N)NC(=O)[C@H](C)NC(=O)[C@H](C)NC(=O)[C@H](CCCNC(=N)N)NC(=O)[C@H](CCCCN)NC(=O)[C@@H](NC(=O)[C@H](CCC(=O)O)NC(C)=O)[C@@H](C)O)C(=O)N[C@@H](C)C(N)=O` [Peptide 3] (Ac-ETKRAARRPYKPIA-NH2), in data set [3], the half-life at 600 µM was 16 min; the remaining at 5 min, 600 µM stood at 67.5%; the remaining at 0.25 h, 600 µM came out at 49.2%; the remaining at 1 h, 600 µM was determined as 0%. In addition, the IC50 in data set [1] worked out at 2620 ± 786 nM.

For the compound `COc1cc2nc(N3CCCN(C)CC3)nc(NC3CCN(Cc4ccccc4)CC3)c2cc1OC` [BIX01294], in data set [4], the “Biosimilarity (%)” value is 64.9%.

On to `CC(C)(C)C[C@@H]1N[C@@H](C(=O)N[C@H]2CC[C@H](O)CC2)[C@H](c2cccc(Cl)c2F)[C@]12C(=O)Nc1cc(Cl)ccc12` [MI-773], for which, in data set [4], the “Biosimilarity (%)” value is listed as 73.0%.

For `NS(=O)(=O)OC[C@@H]1C[C@@H](n2ccc3c(N[C@H]4CCc5ccccc54)ncnc32)C[C@@H]1O` [Pevonedistat], the “Biosimilarity (%)” value in data set [4] is on record as 63.6%.

Turning to `CCN(CC)CCNC(=O)c1c(C)[nH]c(/C=C2\C(=O)Nc3ccc(F)cc32)c1C` [Sunitinib], the “Biosimilarity (%)” value in data set [4] came out at 63.5%.

Take PFI-5: the “Biosimilarity (%)” value in data set [4] amounted to 65.1%.

`CC(=O)N1CCN(c2ccc(OCC3COC(Cn4ccnc4)(c4ccc(Cl)cc4Cl)O3)cc2)CC1` (centres unmarked) [Ketoconazole]: the “Biosimilarity (%)” value in data set [4] was 61.9%.

Regarding `CC[C@H](C)[C@H](NC(=O)[C@@H]1CCCN1C(=O)[C@H](CCCCN)NC(=O)[C@H](Cc1ccc(O)cc1)NC(=O)[C@@H]1CCCN1C(=O)[C@H](CCCNC(=N)N)NC(=O)[C@H](CCCNC(=N)N)NC(=O)[C@H](C)NC(=O)[C@H](C)NC(=O)[C@H](CCCNC(=N)N)NC(=O)[C@H](CCCCN)NC(=O)[C@@H](NC(=O)[C@H](CCC(=O)O)NC(=O)[C@H](CO)NC(=O)[C@H](CO)NC(=O)[C@H](CO)NC(=O)[C@H](CC(C)C)NC(=O)[C@H](CC(C)C)NC(=O)[C@H](CCCCN)NC(C)=O)[C@@H](C)O)C(=O)N[C@@H](C)C(=O)N[C@@H](CC(C)C)C(=O)N[C@@H](CCCNC(=N)N)C(=O)N[C@@H](CCC(N)=O)C(=O)N[C@@H](CO)C(=O)N[C@@H](CCC(N)=O)C(=O)N[C@@H](C)C(N)=O` [Peptide 2] (Ac-KLLSSSETKRAARRPYKPIALRQSQA-NH2), the IC50 in data set [1] came out at 13.4 ± 3 nM. Further, the Kd in data set [2] (setting [5]) worked out at 5.18 nM.

`CC(=O)N[C@H]1CSCc2ccc(cc2)CSC[C@@H](C(=O)N[C@@H](C)C(N)=O)NC(=O)[C@@H]2CCCN2C(=O)[C@H](CCCCN)NC(=O)[C@H](Cc2ccc(O)cc2)NC(=O)[C@@H]2CCCN2C(=O)[C@H](CCCNC(=N)N)NC(=O)[C@H](CCCNC(=N)N)NC(=O)[C@H](C)NC(=O)[C@H](C)NC(=O)[C@H](CCCNC(=N)N)NC(=O)[C@H](CCCCN)NC(=O)[C@H]([C@@H](C)O)NC1=O` [Peptide 8] (Ac-CTKRAARRPYKPCA-NH2; linker 1-13 via pXylylene): in data set [3], the half-life at 600 µM came to 11.9 min; the remaining at 5 min, 600 µM was found to be 67.8%; the remaining at 0.25 h, 600 µM came to 41%; the remaining at 1 h, 600 µM is 0%. Moreover, the IC50 in data set [1] amounted to 15.1 ± 5.4 nM. Besides, the “K D” value in data set [2] (setting [5]) was “did not yield a binding curve”. Besides, in data set [2] (competitive ITC: 300 μM peptide titrated into 30 μM RbAp48 and 416 μM peptide 40, 20 mM Tris, 150 mM NaCl, pH 7.5, 25°C, duplicate except 8), the “K D [nM]” value is listed as “N.B”.
